The text below walks through data of patent publication US20070037887A1, “Blockade of mtor to prevent a hormonal adaptive response” (University of Virginia Patent Foundation, priority 2003, published 2007).

Common to all, as to format: cell-based, human
For assay [1], the system named is MCF-7 cells. The assay can be described thus: [3H] thymidine incorporation into DNA, MCF-7 cells. How it is done: (§1) FIGS. 5A & 5B represent the effect of FTS on DNA synthesis in MCF-7 (FIG. 5A) and LTED (FIG. 5B) cells. One hundred thousand cells were plated into each well of 24-well plates. Two days later, the cells were re-fed with IMEM containing 5% DCC-FBS. After another two days, cells were treated in quadruplicate with the compounds indicated for 18 hours. [^3H] thymidine (1 μCi/well) was added during the last 2 h of incubation. [^3H] thymidine incorporated into DNA was normalized by protein content.
(§2) The inhibitory effect of FTS on cell growth may be the result of inhibition of cellular proliferation, induction of apoptosis, or both. To determine the mechanism by which FTS inhibits cell growth, FTS's effect on DNA synthesis and apoptosis was investigated. […] Estradiol (10^−10 M) increased [^3H] thymidine incorporation by 2.6 fold compared to the control level in MCF-7 cells.
For orientation: Uptake of a labelled nucleoside into DNA is a usual measure of proliferation.

Assay [2] concerns LTED cells. The assay is described as follows: Apoptosis ELISA (Cell Death Detection Kit), LTED cells. The following applies: three day treatment. As to the method:
FIG. 6 is a bar graph portraying data representing the induction of apoptosis in MCF-7 and LTED cells by FTS. Eighty thousand MCF-7 and LTED cells were plated into each well of 12-well plates in their culture media. Two days later, the cells were treated with FTS for 3 days. Apoptosis was measured using a Cell Death Detection Kit from Roche Molecular Biochemicals. Parallel plates subjected to identical treatment were prepared for cell counting. The results were expressed as the values of optical density at 405 nm per 10,000 cells.
Applicants postulated that these cells might also have become sensitized to the pro-apoptotic effects of estradiol. To test this hypothesis, an ELISA assay was used to assess apoptosis and to compare the effects of estradiol in wild-type and LTED cells. […] The presence of apoptosis in LTED cells was confirmed by the measurement of annexin V and the use of time-lapse microscopy.
The effect of a three day treatment with FTS on apoptosis in MCF-7 and LTED cells was examined using the ELISA assay for quantitation. […] LTED cells were much more sensitive than MCF-7 cells to the apoptotic effects of FTS.

Assay [3] relates to MCF-7 cells. The assay is described as follows: Growth of MCF-7 cells (cell number). As to the method:
FIG. 3 represents the effect of FTS on the growth of MCF-7, LTED, and MCF-10A cells. Sixty thousand cells were plated into each well of 6-well plates. Two days later, the cells were treated in triplicate for five days with FTS at indicated concentrations. The results (mean±S.E.) are expressed as percentage of the vehicle control.
FIG. 4 represents the effect of FTS on E2 stimulated growth of MCF-7 and LTED cells. Thirty thousand cells were plated into each well of 6-well plates. Two days later, the cells were re-fed with IMEM containing 5% DCC-FBS. After another two days, cells were treated in triplicate with estradiol (10^−10 M) plus various concentrations of FTS for five days. In LTED cells, fulvestrant (10^−9 M) was included in all wells to block the effect of residual estrogen in the culture. The results (mean±S.E.) are expressed as percentage of cell number from the wells containing E2.
The effect of FTS on growth of breast cancer cells was examined in two different cell lines: MCF-7 wild type cells which represent a model for untreated breast cancer and LTED cells as a model of cells adapting to endocrine treatment. Cells were grown in their culture media and treated with FTS for five days. […] The effect of FTS on E2-stimulated growth of MCF-7 and LTED cells was the examined. Five-day treatment of MCF-7 cells with E2 (10^−10 M) increased cell number by 8-fold compared with the vehicle control. Addition of FTS reduced cell number in a dose-dependent manner with about 50% inhibition at the concentration of 50 μM […]. […] The extent of inhibition of E2-stimulated cell growth by FTS was similar in these two cell lines.

For assay [4], the system named is LTED cells. The assay is described as follows: [3H] thymidine incorporation into DNA, LTED cells. As to conditions: FTS 75 μM, 18 hours. How it is done: as §1, §2

Broadly, the inhibition is the change of the read-out against control, counted positive when it falls.

In the case of `CC(C)=CCC/C(C)=C/CC/C(C)=C/CSc1ccccc1C(=O)O` [FTS, farnesylthiosalicylic acid], the “[3H] thymidine incorporated into DNA” value in assay [1] (FTS 75 μM, 18 hours) was “significantly reduced”; in assay [4] it was “significantly reduced”. Besides, the “estradiol-induced increase of [3H] thymidine incorporation” value in assay [1] (FTS with estradiol 10^−10 M) was “completely blocked”. Further, the induction of apoptosis result was “dramatic increase in apoptosis” in assay [2] (FTS 75 μM); “did not induce apoptosis” in assay [2] (FTS 20 and 50 μM). Besides, the inhibition at 50 µM in assay [3] (Homo sapiens, MCF7, 120 h, read-out: inhibition of E2-stimulated growth (cell number)) is ~50%. In addition, the basal growth result in assay [3] (culture media, five days) is recorded as “dose-dependently inhibited”.
